Results on 1 compound are retold here after article PMC2667211, “Kinase Domain Insertions Define Distinct Roles of CLK Kinases in SR Protein Phosphorylation” (Structure(London, England:1993), 2009).

The target in one experiment is CLK1 (Homo sapiens, UniProt P49759). Nature of the experiment: coupled-enzyme kinase assay at […] inhibitor; thermal shift […]°C. It counts as biochemical.
In another experiment the target is T1, CLK3 (Homo sapiens, UniProt P49761).
T1 construct: kinase domain, residues 127–484
Nature of the experiment: kinase assay at […] inhibitor; thermal shift screening. It counts as biochemical.

Some results are limits rather than exact numbers.

Chain of CLK1 (P49759 148-484): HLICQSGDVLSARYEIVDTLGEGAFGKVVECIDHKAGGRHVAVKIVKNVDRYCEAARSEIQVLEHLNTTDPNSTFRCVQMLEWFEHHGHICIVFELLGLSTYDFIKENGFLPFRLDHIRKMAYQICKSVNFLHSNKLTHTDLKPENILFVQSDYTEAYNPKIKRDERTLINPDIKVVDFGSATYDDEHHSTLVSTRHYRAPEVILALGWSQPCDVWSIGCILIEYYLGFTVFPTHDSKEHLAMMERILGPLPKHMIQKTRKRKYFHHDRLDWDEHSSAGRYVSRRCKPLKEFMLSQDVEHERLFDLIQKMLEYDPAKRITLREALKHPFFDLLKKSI
T1 sequence (P49761 127-484): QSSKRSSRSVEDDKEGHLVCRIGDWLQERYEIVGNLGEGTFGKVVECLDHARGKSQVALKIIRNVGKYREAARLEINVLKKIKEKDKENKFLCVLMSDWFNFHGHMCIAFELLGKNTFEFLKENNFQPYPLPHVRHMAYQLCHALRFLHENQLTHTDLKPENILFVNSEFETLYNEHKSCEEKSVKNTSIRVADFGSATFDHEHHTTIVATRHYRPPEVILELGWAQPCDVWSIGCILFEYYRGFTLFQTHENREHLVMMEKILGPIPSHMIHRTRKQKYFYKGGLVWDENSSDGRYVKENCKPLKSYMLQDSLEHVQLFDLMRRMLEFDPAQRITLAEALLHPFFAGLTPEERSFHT

On to `Nc1nc(Nc2ccc(S(N)(=O)=O)cc2)nn1C(=S)Nc1c(F)cccc1F` [compound 11, CDK1/2 inhibitor], for which the “% activity at 100 nM” value at CLK1 is recorded as below 1; on CLK3 it was below 50.
